Experimental data as given in patent US7358221B1, “Metathesis depolymerizable surfactants” (Sandia Corporation, priority 2004, dated 2008).

How the values were obtained:
[1] = Ring-closing metathesis degradation followed by 1H NMR in chloroform; type: physicochemical; details: 2 mol. % RuCl2[C21H26N2][CHC6H5]P(C6H11)3 (2nd generation Grubbs catalyst), 25° C.
From the text: Decomposition of these surfactant molecules takes place by the action of a ring closing metathesis-active transition metal catalyst on the tail portion of the surfactant, as illustrated in FIG. 8. It is believed that initiation of the decomposition reaction produces styrene. Intramolecular reaction of double bonds further up the tail group produces cyclohexene faster than cross-metathesis with another surfactant.
Cyclohexene formation is clearly evident in the solution within five minutes of adding the catalyst, as evidenced by the appearance of broad singlets at δ=1.62 and 1.97 ppm and a characteristic singlet at δ=5.67 ppm.
^1H NMR also indicates the presence of the former head group as 7-(N,N,N-trimethylammonium)hept-1-enyl iodide (unchanged chemical shift at δ=3.48 ppm from starting surfactant 4) as well as the cross-coupled product, cis/trans-1,12-bis(trimethylammonium)dodec-6-enyl diiodide (equivalent methyls at δ=3.43 ppm).
Within 5 minutes after the introduction of catalyst, cyclohexene was clearly present in solution as evidenced by the appearance of broad singlets at δ=1.62 and 1.97 ppm and a characteristic singlet at δ=5.67 ppm (see FIG. 10).
Additionally, peaks clearly assignable to allyl malonic acid (δ=5.12-5.22 ppm, δ=3.57 ppm, δ=2.68 ppm) were present, by comparison with an authentic sample. […]

[2] = Critical micelle concentration by dynamic surface tension (surface tensiometry); type: physicochemical; details: equilibrium mode, aqueous solution
From the text: FIGS. 5 and 6 also show the response of dynamic surface tension values (operated in equilibrium mode) measured as a function of concentration for surfactants 4 and the anionic salt 7 in aqueous solution. The physicochemical properties of a surfactant change to a significant degree after reaching the cmc due to the presence of micelles and a surfactant-saturated air-water interface.
A comprehensive listing of all the physicochemical properties calculated for these surfactants is shown above in Table 1.
The surfactant concentration at the intersection of the two lines which are least-squares fit to (1) the rapidly changing surface tension readings and (2) the low, relatively constant surface tension readings at high surfactant concentrations defines the cmc by this method. The cmc's calculated from the surface tension data of surfactants 4 and 7 are 1.9 mmol and 5.9 mmol, respectively. The higher values for cmc as determined by dynamic surface tension compared to Orange OT dye solubilization can be attributed to static (dye solubilization) vs. dynamic (surface tension) measurements of the microenvironment.

Molecule	time to nearly complete decomposition [1]	cmc as determined by surface tensiometry [2]
C=CCCCCC=CCCCCC=CCCCCC[N+](C)(C)C.[I-] [Surfactant 4, trimethylnonadeca-6,12,18-trienylammonium iodide]	≤ 60 min	1.9 mmol
dipotassium heneicosa-2,8,14,20-tetraenyl malonate [Surfactant 7]	–	5.9 mmol
